In the NIST ThermoML archive (doi:10.1021/je400722h):

Assays:
[1] = xn = mol fraction of the nth substance listed; conditions: 101 kPa, Liquid; for speed of sound: Pulse-echo method; for mass density: Vibrating tube method
[2] = excess molar enthalpy (molar enthalpy of mixing); xn = mol fraction of the nth substance listed; conditions: 308.15 K, 101 kPa, Liquid, Power-compensation calorimetry

Cc1ccccc1Cl [2-chlorotoluene] + C1CCOCC1
[1]
Conditions | mass density, 298.15 K [kg/m3] | mass density, 303.15 K [kg/m3] | mass density, 308.15 K [kg/m3] | speed of sound, 298.15 K [m/s] | speed of sound, 303.15 K [m/s] | speed of sound, 308.15 K [m/s]
x1 = 0.1156 | 906.77 | 901.67 | 896.57 | 1274.6 | 1252.7 | 1230.7
x1 = 0.1765 | 920.75 | 915.67 | 910.57 | 1277 | 1255.6 | 1233.7
x1 = 0.2342 | 933.65 | 928.57 | 923.48 | 1279.3 | 1258.1 | 1236.6
x1 = 0.2765 | 942.89 | 937.81 | 932.73 | 1280.9 | 1259.9 | 1238.6
x1 = 0.3305 | 954.43 | 949.36 | 944.29 | 1282.9 | 1262 | 1241
x1 = 0.3716 | 963.04 | 957.97 | 952.9 | 1284.4 | 1263.7 | 1242.9
x1 = 0.4235 | 973.69 | 968.63 | 963.56 | 1286.2 | 1265.7 | 1245
x1 = 0.4721 | 983.44 | 978.39 | 973.33 | 1287.9 | 1267.4 | 1247
x1 = 0.5216 | 993.16 | 988.12 | 983.08 | 1289.4 | 1269 | 1249
x1 = 0.5803 | 1004.4 | 999.4 | 994.39 | 1291.2 | 1271.1 | 1251.1
x1 = 0.6317 | 1014.1 | 1009.1 | 1004.1 | 1292.6 | 1272.7 | 1252.8
x1 = 0.6796 | 1022.8 | 1017.9 | 1012.9 | 1293.9 | 1274.1 | 1254.5
x1 = 0.7216 | 1030.4 | 1025.4 | 1020.5 | 1294.8 | 1275.3 | 1255.7
x1 = 0.7737 | 1039.6 | 1034.7 | 1029.7 | 1296 | 1276.7 | 1257.3
x1 = 0.8219 | 1047.9 | 1043 | 1038.1 | 1296.8 | 1277.8 | 1258.6
x1 = 0.8753 | 1057 | 1052.1 | 1047.2 | 1297.7 | 1279 | 1260
x1 = 0.9064 | 1062.2 | 1057.3 | 1052.4 | 1298.1 | 1279.5 | 1260.7
x1 = 0.9325 | 1066.5 | 1061.6 | 1056.7 | 1298.3 | 1279.9 | 1261.4

[2]
Conditions | excess molar enthalpy [kJ/mol]
x1 = 0.0994 | -0.0694
x1 = 0.1367 | -0.0945
x1 = 0.1982 | -0.127
x1 = 0.2467 | -0.154
x1 = 0.3018 | -0.178
x1 = 0.3537 | -0.192
x1 = 0.3986 | -0.204
x1 = 0.4367 | -0.214
x1 = 0.4825 | -0.22
x1 = 0.5267 | -0.22
x1 = 0.5894 | -0.214
x1 = 0.6276 | -0.211
x1 = 0.6934 | -0.191
x1 = 0.7368 | -0.175
x1 = 0.7864 | -0.155

Cc1ccccc1Cl [2-chlorotoluene] + C1COCCO1
[1]
Conditions | mass density, 298.15 K [kg/m3] | mass density, 303.15 K [kg/m3] | mass density, 308.15 K [kg/m3] | speed of sound, 298.15 K [m/s] | speed of sound, 303.15 K [m/s] | speed of sound, 308.15 K [m/s]
x1 = 0.0984 | 1033.4 | 1027.7 | 1022 | 1338.2 | 1316.6 | 1295.1
x1 = 0.1643 | 1036.9 | 1031.3 | 1025.6 | 1333.2 | 1312 | 1290.8
x1 = 0.2124 | 1039.5 | 1033.9 | 1028.3 | 1329.9 | 1308.9 | 1287.9
x1 = 0.2837 | 1043.3 | 1037.8 | 1032.3 | 1325.3 | 1304.6 | 1284
x1 = 0.3427 | 1046.3 | 1040.9 | 1035.5 | 1321.8 | 1301.5 | 1281.2
x1 = 0.3918 | 1048.9 | 1043.5 | 1038.2 | 1319.1 | 1299 | 1279
x1 = 0.4375 | 1051.2 | 1045.9 | 1040.6 | 1316.8 | 1296.9 | 1277
x1 = 0.4864 | 1053.6 | 1048.4 | 1043.1 | 1314.5 | 1294.8 | 1275.1
x1 = 0.5237 | 1055.5 | 1050.3 | 1045.1 | 1312.8 | 1293.2 | 1273.8
x1 = 0.5765 | 1058.1 | 1052.9 | 1047.7 | 1310.7 | 1291.2 | 1271.9
x1 = 0.6237 | 1060.4 | 1055.2 | 1050.1 | 1308.8 | 1289.6 | 1270.4
x1 = 0.6801 | 1063 | 1057.9 | 1052.8 | 1306.9 | 1287.7 | 1268.7
x1 = 0.7135 | 1064.6 | 1059.5 | 1054.4 | 1305.8 | 1286.7 | 1267.8
x1 = 0.7737 | 1067.4 | 1062.3 | 1057.2 | 1304 | 1285 | 1266.3
x1 = 0.8125 | 1069.2 | 1064.1 | 1059 | 1302.9 | 1284.1 | 1265.4
x1 = 0.8635 | 1071.4 | 1066.4 | 1061.4 | 1301.7 | 1283 | 1264.4
x1 = 0.9012 | 1073.1 | 1068.1 | 1063.1 | 1300.8 | 1282.2 | 1263.8
x1 = 0.9415 | 1074.9 | 1069.9 | 1064.9 | 1299.9 | 1281.5 | 1263.3

[2]
Conditions | excess molar enthalpy [kJ/mol]
x1 = 0.0998 | 0.162
x1 = 0.1643 | 0.244
x1 = 0.2095 | 0.283
x1 = 0.2498 | 0.315
x1 = 0.3012 | 0.346
x1 = 0.3567 | 0.365
x1 = 0.4098 | 0.368
x1 = 0.4597 | 0.367
x1 = 0.5088 | 0.356
x1 = 0.5563 | 0.338
x1 = 0.6019 | 0.315
x1 = 0.6532 | 0.281
x1 = 0.7067 | 0.246
x1 = 0.7538 | 0.206
x1 = 0.8093 | 0.16
x1 = 0.8498 | 0.125
x1 = 0.8932 | 0.0875
x1 = 0.9265 | 0.0602
